The values that follow come from patent US5008252A, “Process for inhibiting herpes simplex virus-specified thymidine kinase” (The University of North Carolina at Chapel Hill, priority 1987, dated 1991).

The test concerns HSV-1 (strain KOS)-infected HeLa BU cells. The test can be described thus: Virus yield assay. It counts as cell-based. Conditions: for reversal of antiviral activity by 5'-Et-dThd: 100 μM 5'-Et-dThd, ACV 15 μM, DHPG 2 μM, FIAC 1 μM, BVDU 1 μM, 5'-NH2-dThd 500 μM; for % PFU with a 5'-Et-dThd conc. of 2.5 μM: drug (μM as in row; None = 5'-Et-dThd alone) plus 2.5 μM 5'-Et-dThd; for % PFU with a 5'-Et-dThd conc. of 25 μM: drug (μM as in row; None = 5'-Et-dThd alone) plus 25 μM 5'-Et-dThd; for % PFU with a 5'-Et-dThd conc. of 0 μM: drug alone, drug μM in parentheses in row: ACV 15, FIAC 1, DHPG 2, BVDU 1, 5'-NH2-dThd 500. As for the experimental part:
Cell and virus growth inhibition. Cell growth inhibition and the virus yield assay were performed in accordance with the protocol described by Cheng, Y.-C., Grill, S.P., Ruth, J. and Bergstrom, D. E. (Antimicrob. Agents Chemother. 18:957-961 (1980)) with the exceptions that all studies were done using 5% dialyzed fetal bovine serum; the multiplicity of infection was 3 PFU/cell and Vero cells were used instead of CV-1 cells for titration in the virus yield assays.

The mark [1] stands for this setting: Table II, drug (μM as in row; None = 5'-Et-dThd alone) plus 100 μM 5'-Et-dThd.

In the case of `O=c1[nH]c(=O)n([C@H]2C[C@H](O)[C@@H](CO)O2)cc1/C=C/Br` [BVDU, (E)-5-(2-bromovinyl)-2'-deoxyuridine], the “reversal of antiviral activity by 5'-Et-dThd” value (from here on “reversal of antiviral activity”) is given as 15 fold. In addition, for the setting “Table II”, the “% PFU with a 5'-Et-dThd conc. of 2.5 μM” value turned out to be 9.5%, the “% PFU with a 5'-Et-dThd conc. of 25 μM” value was 13% and the “% PFU with a 5'-Et-dThd conc. of 0 μM” value is reported as 0.9%.

For `Nc1nc(=O)n([C@@H]2O[C@H](CO)[C@@H](O)[C@@H]2F)cc1I` [FIAC, fluoroido-arabinosyl-cytosine], the “reversal of antiviral activity” value is given as 98 fold. Under “Table II”, the “% PFU with a 5'-Et-dThd conc. of 2.5 μM” value was found to be 26%, the “% PFU with a 5'-Et-dThd conc. of 25 μM” value is 59% and the “% PFU with a 5'-Et-dThd conc. of 0 μM” value is listed as 0.6%.

In the case of `C[C@@]1(CO)[C@H](O)CC[C@@]2(C)[C@H]1CC[C@H]1C[C@@H]3C[C@@]12CC[C@]3(O)CO` [Aphidicolin, aphidicolin], under “0.2 μM aphidicolin plus 100 μM 5'-Et-dThd”, the “% PFU with 100 μM 5'-Et-dThd relative to aphidicolin alone” value is given as “less than one half”. The activity at 0.2 µM (Human alphaherpesvirus 1, HeLa, read-out: %PFU with a 5'-Et-dThd conc. of 0 μM) is 54%. In addition, the “%PFU with a 5'-Et-dThd conc. of 5 μM” value (Table III, aphidicolin 0.2 μM (None = 5'-Et-dThd alone) plus 5 μM 5'-Et-dThd) came to 65%. In addition, where the note is “Table III, aphidicolin 0.2 μM (None = 5'-Et-dThd alone) plus 20 μM 5'-Et-dThd”, the “%PFU with a 5'-Et-dThd conc. of 20 μM” value is 45%. Where the note is “Table III, aphidicolin 0.2 μM (None = 5'-Et-dThd alone) plus 100 μM 5'-Et-dThd”, the “% PFU with a 5'-Et-dThd conc. of 100 μM” value is listed as 21%.

For `Nc1nc2c(ncn2COC(CO)CO)c(=O)[nH]1` [DHPG, 9-(1,3-dihydroxy-2-propoxymethyl) guanine], the “reversal of antiviral activity” value was 100 fold. In addition, for the setting “Table II”, the “% PFU with a 5'-Et-dThd conc. of 2.5 μM” value was found to be 0.2%, the “% PFU with a 5'-Et-dThd conc. of 25 μM” value is 4% and the “% PFU with a 5'-Et-dThd conc. of 0 μM” value was 0.1%. The “% PFU with a 5'-Et-dThd conc. of 100 μM” value under setting [1] worked out at 10%.

Turning to `Cc1cn([C@H]2C[C@H](O)[C@@H](CN)O2)c(=O)[nH]c1=O` [5'-NH2-dThd, 5'-amino-dThd], the “reversal of antiviral activity” value stood at 250 fold. For the same molecule, under “Table II”, the “% PFU with a 5'-Et-dThd conc. of 2.5 μM” value was 0.3%, the “% PFU with a 5'-Et-dThd conc. of 25 μM” value is listed as 3% and the “% PFU with a 5'-Et-dThd conc. of 0 μM” value is recorded as 0.2%. In addition, under setting [1], the “% PFU with a 5'-Et-dThd conc. of 100 μM” value amounted to 50%.

`Nc1nc2c(ncn2COCCO)c(=O)[nH]1` [ACV, acyclovir]: the “reversal of antiviral activity” value amounted to 35 fold. Where the note is “Table II”, the “% PFU with a 5'-Et-dThd conc. of 2.5 μM” value is 9%, the “% PFU with a 5'-Et-dThd conc. of 25 μM” value is 45% and the “% PFU with a 5'-Et-dThd conc. of 0 μM” value worked out at 2%. Under setting [1], the “% PFU with a 5'-Et-dThd conc. of 100 μM” value was 70%.
